Measured values taken from the NIST ThermoML archive (doi:10.1016/j.fluid.2014.05.006).
Numbers after ± are expanded uncertainties. Each block holds one compound with its values, some of them ahead of it.

What was measured:
[1] = relative permittivity at zero frequency (dimensionless); settings: 298 K; 94.77 kPa; Liquid; Parallel plate capacitor
[2] = relative permittivity at zero frequency (dimensionless); xn = mol fraction of the nth substance listed; settings: 298 K, 94.77 kPa, Liquid, Parallel plate capacitor

relative permittivity at zero frequency [1]: 39.78 ± 4.2
Compound: Cn1ccnc1 [1-methylimidazole]

relative permittivity at zero frequency ([2]; x2 = 0): 39.78 ± 4.2
relative permittivity at zero frequency ([2]; x2 = 0.1): 40.98 ± 4.3
relative permittivity at zero frequency ([2]; x2 = 0.2): 42.55 ± 4.5
relative permittivity at zero frequency ([2]; x2 = 0.3): 45.87 ± 4.9
relative permittivity at zero frequency ([2]; x2 = 0.4): 46.02 ± 4.9
relative permittivity at zero frequency ([2]; x2 = 0.5): 48.53 ± 5.2
relative permittivity at zero frequency ([2]; x2 = 0.6): 50.04 ± 5.3
relative permittivity at zero frequency ([2]; x2 = 0.7): 50.99 ± 5.4
relative permittivity at zero frequency ([2]; x2 = 0.8): 52 ± 5.5
relative permittivity at zero frequency ([2]; x2 = 0.9): 53.01 ± 7.5
Compound: Cn1ccnc1 [1-methylimidazole] + O

relative permittivity at zero frequency [1]: 80 ± 8.5
Compound: O [water]

relative permittivity at zero frequency ([2]; x1 = 1): 80 ± 8.5
Compound: O [water] + Cn1ccnc1
